Series [1] can be described thus: Acute toxicity in iv dosed ICR mouse assessed as median mortality dose. The series is classed as organism-based. The note with it: in vivo.
In series [2] the test system is Salmonella typhimurium. As to the kind of experiment: Mutagenecity in Salmonella typhimurium TA97 in presence of metabolic activation system at 1 ug/ml by Ames test. In kind it is toxicity, organism-based. The following applies: salmonella enterica subsp. enterica serovar typhimurium; dose 1 µg/ml. A general note: The Ames test uses bacterial strains that need an amino acid and regain growth without it when mutated back.

For the next series, the system named is CWR22R. As to the kind of experiment: Induction of intracellular reactive oxygen species production in human 22Rv1 cells incubated for 1 hr measured at CC50 concentration by amperometric method. The series is classed as functional, cell-based.
The nature of series [3]: AUC (0 to infinity) in rabbit at 0.81 mg/kg, iv. The series is classed as ADME, organism-based, Oryctolagus cuniculus. The arrangement: time infinity, route intravenous, dose 0.81 mg/kg. The note with it: in vivo.
Series [4] in a line: Toxicity in rat assessed as morphological changes in gastric wall mucosa at 150 to 225 microg/kg, iv. The following applies: in vivo, dose 150-225 µg/kg.
Series [5] can be described thus: Toxicity in rat assessed as morphological changes in mucosae of mouth at 150 to 225 microg/kg, iv. The series is classed as tissue-based. The note with it: in vivo, dose 150-225 µg/kg.
Series [6] relates to Salmonella typhimurium. As to the kind of experiment: Mutagenecity in Salmonella typhimurium TA97 without metabolic activation system at 100 ug/ml by Ames test. In kind it is toxicity, organism-based. The note with it: salmonella enterica subsp. enterica serovar typhimurium; dose 100 µg/ml.
Series [7] can be described thus: Toxicity in rabbit assessed as morphological changes in thymus at 81 to 122 microg/kg, iv. The note with it: in vivo, dose 81-122 µg/kg. In kind it is tissue-based, Oryctolagus cuniculus.
Series [8] can be described thus: Toxicity in rat assessed as morphological changes in brain ventricle at 150 to 225 microg/kg, iv. The note with it: in vivo, dose 150-225 µg/kg. In kind it is tissue-based.
A short description of series [9]: Toxicity in rat assessed as morphological changes in capsule of the kidney at 150 to 225 microg/kg, iv. In kind it is tissue-based. The following applies: in vivo, dose 150-225 µg/kg.
The test system of series [10] is Salmonella typhimurium. As to the kind of experiment: Mutagenecity in Salmonella typhimurium TA97 in presence of metabolic activation system at 100 ug/ml by Ames test. The series is classed as toxicity, organism-based. The following applies: salmonella enterica subsp. enterica serovar typhimurium; dose 100 µg/ml.
Series [11] in a line: Chronic toxicity in rabbit assessed as mortality rate at 5.4 microg/kg, iv dosed measured at day 4. The series is classed as organism-based, Oryctolagus cuniculus. The note with it: in vivo, 0.0054 mg/kg, dose 5.4 µg/kg, read-out: Activity.
Series [12] is described as follows: Initial plasma concentration in rabbit plasma at 0.81 mg/kg, iv. In kind it is ADME, organism-based, Oryctolagus cuniculus.
Series [13] is described as follows: Toxicity in rabbit assessed as morphological changes in aortic intima at 81 to 122 microg/kg, iv. The arrangement: species or system Oryctolagus cuniculus. The note with it: in vivo, dose 81-122 µg/kg.
In the next series the test system is PC-3. Briefly: Induction morphological changes in human PC-3 cells assessed as decrease in cell membrane stiffness measured immediately after MMAE addition. The series is classed as functional, cell-based. The note with it: time hrs <=1.
Series [14] in a line: Mean residence time in rabbit at 0.81 mg/kg, iv. In kind it is ADME, organism-based, Oryctolagus cuniculus. The note with it: in vivo.
Series [15] is described as follows: Toxicity in rabbit assessed as morphological changes in heart muscle at 81 to 122 microg/kg, iv. The note with it: in vivo, dose 81-122 µg/kg. The series is classed as tissue-based, Oryctolagus cuniculus.

“And” between values parts separate entries of the source, which are not always exact repeats. Identical values can stand only once. The source made the active and inactive calls. The rule behind the calls is not given here. *1 amine or outer side, *2 acyl side, *3 side chain or, on linkers, in order; H or OH if unused. Where a SMILES comes first, the peptide text is derived from it. [ ]: non-standard residue; d: D form. The star is where a group is joined. GluureaLys(ε-3-ClBenzyl) = O=C(O)CC[C@H](NC(=O)N[C@@H](CCCCN(Cc1cccc(Cl)c1)*)C(=O)O)C(=O)O; Dolaproine = CO[C@@H]([C@@H]1CCCN1)[C@@H](C)C(=O)O; Dil = CC[C@H](C)[C@H](NC)[C@@H](CC(=O)O)OC; X1 = O=C(CCCc1cn(CCCN[*:1])nn1)[*:2]; PABC = O=C(OCc1ccc(N[*:1])cc1)[*:2]; X2 = C[C@@H](N*)[C@@H](O)c1ccccc1; Cit = NC(=O)NCCC[C@H](N)C(=O)O; Suc = O=C(CCC(=O)[*:2])[*:1]; NMeV = CN[C@H](C(=O)O)C(C)C; Ahx = NCCCCCC(=O)O

The term LD50 denotes the dose expected to kill half of the subjects tested. The term AUC(0-inf) denotes the area under the concentration-time curve extrapolated to infinity. A low value points to low exposure. The term MRT denotes the average time that molecules of a dose stay in the body. For `CC[C@H](C)[C@@H]([C@@H](CC(=O)N1CCC[C@H]1[C@H](OC)[C@@H](C)C(=O)N[C@H](C)[C@@H](O)c1ccccc1)OC)N(C)C(=O)[C@@H](NC(=O)[C@H](C(C)C)N(C)C(=O)OCc1ccc(NC(=O)[C@H](CCCNC(N)=O)NC(=O)[C@@H](NC(=O)CCCc2cn(CCCNC(=O)[C@H](Cc3ccc(O)cc3)NC(=O)[C@H](Cc3ccccc3)NC(=O)CCC(=O)NCCCCCC(=O)N(CCCC[C@H](NC(=O)N[C@@H](CCC(=O)O)C(=O)O)C(=O)O)Cc3cccc(Cl)c3)nn2)C(C)C)cc1)C(C)C` ({GluureaLys(ε-3-ClBenzyl)-Ahx-Suc}-FY[X1]V[Cit][PABC][NMeV]V[Dil][Dolaproine]-X2), the 50% lethal dose (LD50) in [1] was 6.3 mg/kg and 2.7 µmol/kg. For the same compound, the Activity result (with Salmonella typhimurium [2]; in [4]; in series [5]; with Salmonella typhimurium [6]; in series [7]; in [8]) was “Non-Toxic” throughout. Besides, the Activity result (in series [9]; in the series on Salmonella typhimurium [10]; in series [13]; in series [15]) was “Non-Toxic” throughout. Moreover, in the series on CWR22R, the result was Active. The compound further showed an AUC(0-inf) in series [3] of 35000 ng·h/mL. In series [11], the mortality at 4 day was 100%. Besides, the C0 in series [12] was 11000 ng/mL. Moreover, in the series with PC-3, the outcome was inactive. Besides, the MRT in series [14] was found to be 3.4 h.

Values taken from ChEMBL document CHEMBL5034037, “Synthesis, Characterization, and Preclinical Evaluation of a Small-Molecule Prostate-Specific Membrane Antigen-Targeted Monomethyl Auristatin E Conjugate” (J Med Chem, 2021).
